# Experimental data reported in patent US20230364198A1, “C-Peptide as a Therapy for Patients with Diabetes” (University of Cincinnati, priority 2022, published 2023).
# Several values for one entry are separate records, joined by “and”; a condition that tells them apart may be missing. Equal values may be shown once. Entries after “also recorded” stand apart in the source; their conditions may differ. Read-outs that look alike come from different tables or passages of the source. No end group written: not given here.
# Experiments:
# adult mongrel dogs = assay: Hyperinsulinemic euglycemic (Pd1) / hypoglycemic (Pd2) clamp with IV C-peptide or saline coinfusion in dogs; format: in vivo, dog; details: for glucagon secretion during euglycemic/hyperinsulinemic conditions (words): Pd1, IV C-peptide with insulin vs IV saline with insulin
# Description: Studies were carried out on 18-hour fasted adult mongrel dogs (21 ± 4 kg; mean ± SD; 5 male, 4 female), aged 12.1 ± 0.6 months and acquired from a US Department of Agriculture-approved vendor. The animals were housed in a facility with a 12-hour light/12-hour dark cycle (lights on at 06:00 hours) and fed once daily a standard chow and meat diet (34% protein, 14.5% fat, 46% carbohydrate, and 5.5% fiber based on dry weight) that was weight maintaining.
# Two weeks prior to being studied, each dog underwent surgery under general anesthesia to insert sampling catheters in a femoral artery, the hepatic portal vein, and the left common hepatic vein and to place blood flow probes (Transonic Systems) around the hepatic portal vein and hepatic artery. Two experiments were conducted on each animal, with the first being approximately 15 days after surgery and the second approximately 15 days later. Two days before each experiment, blood was drawn to measure leukocyte and hematocrit counts for each animal. […] On the morning of each experiment, the sampling catheters and flow probes were removed from their subcutaneous pockets under local anesthesia (2% lidocaine, Hospira), and the animal was placed in a Pavlov harness. Intravenous catheters were then inserted into a cephalic and saphenous vein to allow peripheral infusions as necessary. The animal was then allowed to rest for 100 minutes, after which basal samples were collected from the artery and portal and hepatic veins between -20 and 0 minutes.
# After the 0-minute sample was collected, experimental period 1 (Pd1) began with the infusion of insulin at 1 mU/kg/min into a leg vein (FIG. 1). At the same time, a leg vein infusion of either canine CPEP (10 pmol/kg/min; AnaSpec) or SAL was also started, and dextrose was infused as needed to maintain euglycemia throughout Pd1 (0-120 minutes). Studies were randomized such that 4 of the 9 dogs received the C-peptide on the first study and the other 5 received saline first. At minute 120, the dextrose infusion was reduced, and the plasma glucose level was allowed to fall to approximately 50 mg/dL, where it was clamped (Pd2; 120-240 minutes; FIG. 1). At the end of the first experiment, all infusions were halted with the exception of glucose, which was infused as needed to restore euglycemia. Once that infusion was no longer required, the catheters and flow probes were placed back into subcutaneous pockets under general anesthesia. After the second experiment, animals were euthanized with pentobarbital, the abdomen was opened, and the positions of the catheter tips were verified.
# The processing of blood samples has been described previously. Plasma glucose was analyzed using the glucose oxidase method (Analox Instruments). Insulin, glucagon, and C-peptide were measured using commercially available radioimmunoassay (RIA) kits from MilliporeSigma, and cortisol was measured using an RIA protocol developed by the Vanderbilt University Medical Center Hormone Assay & Analytical Services Core using an in-house antibody (gift from W. Nicholson) and 125I-cortisol (MP Biomedicals). Catecholamines were measured using high-performance liquid chromatography, while NEFA (FUJIFILM Medical Systems) and lactate and glycerol concentrations were measured using fluorometric assays.
# Hepatic blood flow was measured using ultrasonic flow probes (Transonic Systems). Net hepatic glucose balance (NHGB), hepatic sinusoidal insulin and glucagon levels, and non-hepatic glucose uptake were calculated as described previously, while plasma glucose levels were converted to whole blood values for the calculation of NHGB. Glucagon was measured every 30 minutes during Pd1 and Pd2, and those data are expressed as absolute values and as Δ AUC. […]
# [1] = dogs; cited from earlier work
# [2] = humans; cited from earlier work
# [3] = in vivo; cited from earlier work
sequence,measurement,setting,value
EVEDLQVRDVELAGAPGEGGLQPLALEGALQ [C-peptide],glucagon secretion during euglycemic/hyperinsulinemic conditions (words),adult mongrel dogs,preserved glucagon secretion; also recorded: prevented the expected decline in glucagon secretion; also recorded: preserves basal glucagon secretion
same,glucagon secretion during euglycemic/hyperinsulinemic conditions (words),adult mongrel dogs; listed as CPEP,glucagon secretion decreased less
same,glucagon secretion during hypoglycemic/hyperinsulinemic conditions,"adult mongrel dogs; Pd2, IV C-peptide with insulin vs IV saline with insulin",doubled glucagon secretion
same,reduction in exogenous glucose required to sustain the plasma glucose at 50 mg/dL vs SAL,adult mongrel dogs; final 90 minutes of Pd2,47%
same,exogenous glucose infusion rate (GIR) AUC,"adult mongrel dogs; final 90 minutes of Pd2, glucose clamped at 50 mg/dL, mean ± SEM",37 ± 16 mg/kg × 90 minutes
same,impact on net hepatic uptake of NEFA and glycerol,adult mongrel dogs; hyperinsulinemia of Pd1,no additional impact
same,impact on lipolysis (NEFA and glycerol levels),"adult mongrel dogs; hypoglycemia, Pd2",no impact on lipolysis
same,increase in glucagon secretion in the CPEP group compared with SAL,"adult mongrel dogs; insulin-induced hypoglycemia (Pd2), IV C-peptide 10 pmol/kg/min with insulin 1 mU/kg/min",2 fold
same,"epinephrine, norepinephrine and cortisol levels, SAL vs CPEP","adult mongrel dogs; insulin-induced hypoglycemia, Pd2",no significant difference between treatments
same,increase in net hepatic glucose output (net HGP) vs SAL,"adult mongrel dogs; insulin-induced hypoglycemia, final 90 minutes of Pd2",75%
same,increase in net hepatic glucose output (net HGP) vs SAL,"adult mongrel dogs; insulin-induced hypoglycemia, final 90 minutes of Pd2, listed as CPEP",75% and 73%
same,clearance rate of C-peptide,[1],~ 11.6 mL/kg/min
same,clearance rate of C-peptide,[2],~ 4.4 mL/kg/min
same,C-peptide extraction by the liver as share of its clearance,[3],approximately 5%
